Reference: article PMC11435065, “Inhibition of P-Glycoprotein Asymmetrically Alters the In Vivo Exposure Profile of SGC003F: A Novel Guanylate Cyclase Stimulator” (Pharmaceuticals, 2024)
Like-named read-outs stand apart in the source and are kept apart here.

Assay: Tissue distribution of SGC003F in rats with or without tariquidar
Type: in vivo
Details: rat; for Kp / AUC(0-t): male
Protocol: A total of 45 male SD rats were randomly divided into 15 groups, with 3 rats in each group; each set of 5 groups constituted a larger group. The first large group served as the control group: SGC003F (p.o., 1 mg/kg) + blank solvent; the second large group was designated as experimental Group I: SGC003F (p.o., 1 mg/kg) + tariquidar (i.v., 7.5 mg/kg); the third group was labeled as Group II: SGC003F (p.o., 1 mg/kg) + tariquidar (p.o., 15 mg/kg). The rats in each group were euthanized at 0.5 h, 1 h, 2 h, 4 h, and 24 h after administration. Blood samples were collected by cardiac puncture and placed in heparin tubes. The plasma was harvested by centrifugation at 2500× g for 10 min at 4 °C. Major organs (brain, heart, liver, kidney, and small intestine) were collected and homogenized with saline at a ratio of 1:4 (w/v). All samples were stored at −40 °C for further analysis.
The tissue plasma partition coefficient at individual time point (KP1) was calculated by the ratio of the tissue concentration to the plasma concentration at each time point, as described in Equation (3) KP1 = Ctissue/Cplasma(3)
The overall tissue plasma partition coefficient (KP2) was calculated by the ratio of the area under the tissue drug-time curve to the area under the plasma drug–time curve, as described in Equation (4) KP2 = AUC(0-t, tissue)/AUC(0-t, plasma)(4)

[1] = SGC003F p.o. 1 mg/kg, tariquidar i.v. 7.5 mg/kg
[2] = SGC003F p.o. 1 mg/kg, tariquidar p.o. 15 mg/kg

`COC(=O)Nc1c(N)nc(-c2nn(Cc3sccc3F)c3ncc(F)cc23)nc1N` [SGC003F] gave a Kp (SD, brain, oral, SGC003F p.o. 1 mg/kg, with tariquidar i.v. 7.5 mg/kg, read-out: KP2, Brain) of 0.004, a Kp (SD, brain, oral, SGC003F p.o. 1 mg/kg, with tariquidar p.o. 15 mg/kg, read-out: KP2, Brain) of 0.004 and an AUC(0-t) (SD, brain, po, 1 mg/kg, SGC003F p.o. 1 mg/kg, single, read-out: AUC(0–24h), Brain) of 13.1 ± 2.66 ng·h/mL. For the same compound, the AUC(0-t) (SD, brain, po, 1 mg/kg, SGC003F p.o. 1 mg/kg, with tariquidar i.v. 7.5 mg/kg, read-out: AUC(0–24h), Brain) was 31.2 ± 10.9 ng·h/mL, the AUC(0-t) (SD, brain, po, 1 mg/kg, SGC003F p.o. 1 mg/kg, with tariquidar p.o. 15 mg/kg, read-out: AUC(0–24h), Brain) was 41.5 ± 14.8 ng·h/mL and the Kp (SD, heart, oral, SGC003F p.o. 1 mg/kg, with tariquidar i.v. 7.5 mg/kg, read-out: KP2, Heart) was 0.4 ± 0.02. The Kp (SD, heart, oral, SGC003F p.o. 1 mg/kg, with tariquidar p.o. 15 mg/kg, read-out: KP2, Heart) was 0.45 ± 0.09, the AUC(0-t) (SD, heart, po, 1 mg/kg, SGC003F p.o. 1 mg/kg, single, read-out: AUC(0–24h), Heart) was 2370 ± 346 ng·h/mL and the Kp (SD, heart, po, 1 mg/kg, SGC003F p.o. 1 mg/kg, single, read-out: KP2 (tissue/plasma AUC), Heart) was 0.45 ± 0.04. The AUC(0-t) (SD, heart, po, 1 mg/kg, SGC003F p.o. 1 mg/kg, with tariquidar i.v. 7.5 mg/kg, read-out: AUC(0–24h), Heart) was 3060 ± 619 ng·h/mL, the AUC(0-t) (SD, heart, po, 1 mg/kg, SGC003F p.o. 1 mg/kg, with tariquidar p.o. 15 mg/kg, read-out: AUC(0–24h), Heart) was 4750 ± 1820 ng·h/mL and the AUC(0-t) (SD, kidney, po, 1 mg/kg, SGC003F p.o. 1 mg/kg, single, read-out: AUC(0–24h), Kidney) was 5990 ± 2170 ng·h/mL. The AUC(0-t) (SD, kidney, po, 1 mg/kg, SGC003F p.o. 1 mg/kg, with tariquidar i.v. 7.5 mg/kg, read-out: AUC(0–24h), Kidney) was 7870 ± 1570 ng·h/mL, the AUC(0-t) (SD, kidney, po, 1 mg/kg, SGC003F p.o. 1 mg/kg, with tariquidar p.o. 15 mg/kg, read-out: AUC(0–24h), Kidney) was 11900 ng·h/mL and the AUC(0-t) (SD, liver, po, 1 mg/kg, SGC003F p.o. 1 mg/kg, single, read-out: AUC(0–24h), Liver) was 4870 ± 1050 ng·h/mL. It also gave an AUC(0-t) (SD, liver, po, 1 mg/kg, SGC003F p.o. 1 mg/kg, with tariquidar i.v. 7.5 mg/kg, read-out: AUC(0–24h), Liver) of 6360 ± 283 ng·h/mL, an AUC(0-t) (SD, liver, po, 1 mg/kg, SGC003F p.o. 1 mg/kg, with tariquidar p.o. 15 mg/kg, read-out: AUC(0–24h), Liver) of 9600 ± 1820 ng·h/mL and an AUC(0-t) (SD, plasma, po, 1 mg/kg, SGC003F p.o. 1 mg/kg, single, read-out: AUC(0–24h), Plasma) of 5310 ± 798 ng·h/mL. For the same compound, the AUC(0-t) (SD, plasma, po, 1 mg/kg, SGC003F p.o. 1 mg/kg, with tariquidar i.v. 7.5 mg/kg, read-out: AUC(0–24h), Plasma) was 7540 ± 1280 ng·h/mL, the AUC(0-t) (SD, plasma, po, 1 mg/kg, SGC003F p.o. 1 mg/kg, with tariquidar p.o. 15 mg/kg, read-out: AUC(0–24h), Plasma) was 10200 ng·h/mL and the AUC(0-t) (SD, small intestine, po, 1 mg/kg, SGC003F p.o. 1 mg/kg, single, read-out: AUC(0–24h), Intestine) was 2530 ± 988 ng·h/mL. For the same compound, the AUC(0-t) (SD, small intestine, po, 1 mg/kg, SGC003F p.o. 1 mg/kg, with tariquidar i.v. 7.5 mg/kg, read-out: AUC(0–24h), Intestine) was 5630 ± 1360 ng·h/mL, the AUC(0-t) (SD, small intestine, po, 1 mg/kg, SGC003F p.o. 1 mg/kg, with tariquidar p.o. 15 mg/kg, read-out: AUC(0–24h), Intestine) was 10400 ng·h/mL and the Kp (Sprague-Dawley, brain, po, 1 mg/kg, SGC003F p.o. 1 mg/kg, single, read-out: KP2 (tissue/plasma AUC), Brain) was 0.002. For the same compound, the Kp (Sprague-Dawley, kidney, oral, SGC003F p.o. 1 mg/kg, with tariquidar i.v. 7.5 mg/kg, read-out: KP2, Kidney) was 1.05 ± 0.14, the Kp (Sprague-Dawley, kidney, oral, SGC003F p.o. 1 mg/kg, with tariquidar p.o. 15 mg/kg, read-out: KP2, Kidney) was 1.16 ± 0.26 and the Kp (Sprague-Dawley, kidney, po, 1 mg/kg, SGC003F p.o. 1 mg/kg, single, read-out: KP2 (tissue/plasma AUC), Kidney) was 1.11 ± 0.24. It also gave a Kp (Sprague-Dawley, liver, oral, SGC003F p.o. 1 mg/kg, with tariquidar i.v. 7.5 mg/kg, read-out: KP2, Liver) of 0.86 ± 0.11, a Kp (Sprague-Dawley, liver, oral, SGC003F p.o. 1 mg/kg, with tariquidar p.o. 15 mg/kg, read-out: KP2, Liver) of 0.95 ± 0.07 and a Kp (Sprague-Dawley, liver, po, 1 mg/kg, SGC003F p.o. 1 mg/kg, single, read-out: KP2 (tissue/plasma AUC), Liver) of 0.91 ± 0.09. It also gave a Kp (Sprague-Dawley, small intestine, oral, SGC003F p.o. 1 mg/kg, with tariquidar i.v. 7.5 mg/kg, read-out: KP2, Intestine) of 0.74 ± 0.06, a Kp (Sprague-Dawley, small intestine, oral, SGC003F p.o. 1 mg/kg, with tariquidar p.o. 15 mg/kg, read-out: KP2, Intestine) of 1.01 ± 0.19 and a Kp (Sprague-Dawley, small intestine, po, 1 mg/kg, SGC003F p.o. 1 mg/kg, single, read-out: KP2 (tissue/plasma AUC), Intestine) of 0.47 ± 0.11. For the same compound, the “Brain-to-plasma concentration ratio relative to control group” value (4 h, SGC003F p.o. 1 mg/kg with tariquidar (oral or i.v.)) was “twice”, the “Increase of SGC003F concentration in the brain versus SGC003F alone” value (4 h, SGC003F p.o. 1 mg/kg, tariquidar intravenously 7.5 mg/kg) was 3.2 fold and the “Increase of SGC003F concentration in the brain versus SGC003F alone” value (4 h, SGC003F p.o. 1 mg/kg, tariquidar orally 15 mg/kg) was 4.2 fold. For the same compound, the “Concentration of SGC003F in the brain” value (24 h, all groups (alone or with tariquidar)) was “below the limit of quantification”, the “AUC(0–24h), Brain, Ratio 1 (with Tar (i.v.)/single)” value [1] was 2.4 and the “AUC(0–24h), Heart, Ratio 1 (with Tar (i.v.)/single)” value [1] was roughly 1.3. For the same compound, the “AUC(0–24h), Intestine, Ratio 1 (with Tar (i.v.)/single)” value [1] was 2.2, the “AUC(0–24h), Kidney, Ratio 1 (with Tar (i.v.)/single)” value [1] was roughly 1.3 and the “AUC(0–24h), Liver, Ratio 1 (with Tar (i.v.)/single)” value [1] was roughly 1.3. The “AUC(0–24h), Plasma, Ratio 1 (with Tar (i.v.)/single)” value [1] was 1.4, the “KP2, Brain, Ratio 1 (with Tar (i.v.)/single)” value [1] was 2.0 and the “KP2, Intestine, Ratio 1 (with Tar (i.v.)/single)” value [1] was 1.6. For the same compound, the “AUC(0–24h), Heart, Ratio 2 (with Tar (p.o.)/single)” value [2] was 2.0, the “AUC(0–24h), Kidney, Ratio 2 (with Tar (p.o.)/single)” value [2] was 2.0 and the “AUC(0–24h), Liver, Ratio 2 (with Tar (p.o.)/single)” value [2] was 2.0. The “AUC(0–24h), Plasma, Ratio 2 (with Tar (p.o.)/single)” value [2] was 2.0, the “KP2, Brain, Ratio 2 (with Tar (p.o.)/single)” value [2] was 2.0 and the “KP2, Heart, Ratio 2 (with Tar (p.o.)/single)” value [2] was 1.0. The “KP2, Intestine, Ratio 2 (with Tar (p.o.)/single)” value [2] was 2.1, the “KP2, Kidney, Ratio 2 (with Tar (p.o.)/single)” value [2] was 1.0 and the “KP2, Liver, Ratio 2 (with Tar (p.o.)/single)” value [2] was 1.0.
